Measured values published in the kinase profiling compilation of Christmann-Franck et al. (2016).
Values joined by “and” are separate entries in the source; they are usually repeats but may differ in a detail not shown here. Identical values can stand only once.

How the values were obtained:
Assay in all cases: radiometric filter-binding kinase assay, Kinase HotSpot
Conditions in all cases: compound 0.5 µM; ATP 10 µM
MARK1 (human) = MARK1 (human) (UniProt Q9P0L2)
CDK1 CCNA2 (human) = CDK1 CCNA2 (human) (UniProt P06493+P20248)
IGF1R (human) = IGF1R (human) (UniProt P08069)
DCLK2 (human) = DCLK2 (human) (UniProt Q8N568)
MAP3K14 (human) = MAP3K14 (human) (UniProt Q99558)
JAK3 JH1 JH2 (human) = JAK3 JH1 JH2 (human) (UniProt P52333)
CAMKK2 (human) = CAMKK2 (human) (UniProt Q96RR4)
PAK4 (human) = PAK4 (human) (UniProt O96013)
PAK2 (human) = PAK2 (human) (UniProt Q13177)
RPS6KB1 (human) = RPS6KB1 (human) (UniProt P23443)
PAK6 (human) = PAK6 (human) (UniProt Q9NQU5)
DYRK1B (human) = DYRK1B (human) (UniProt Q9Y463)
RPS6KA3 KD1 KD2 (human) = RPS6KA3 KD1 KD2 (human) (UniProt P51812)
SRPK3 (human) = SRPK3 (human) (UniProt Q9UPE1)
SYK (human) = SYK (human) (UniProt P43405)
IKBKB (human) = IKBKB (human) (UniProt O14920)
ABL2 (human) = ABL2 (human) (UniProt P42684)
NTRK1 (human) = NTRK1 (human) (UniProt P04629)
OXSR1 (human) = OXSR1 (human) (UniProt O95747)
BRSK2 (human) = BRSK2 (human) (UniProt Q8IWQ3)
PTK6 (human) = PTK6 (human) (UniProt Q13882)
PDPK1 (human) = PDPK1 (human) (UniProt O15530)
AKT1 (human) = AKT1 (human) (UniProt P31749)
CDK3 CCNE1 (human) = CDK3 CCNE1 (human) (UniProt Q00526+P24864)
PRKCB2 (human) = PRKCB2 (human) (UniProt P05771)
TXK (human) = TXK (human) (UniProt P42681)
ZAP70 (human) = ZAP70 (human) (UniProt P43403)
MET (human) = MET (human) (UniProt P08581)
PRKCH (human) = PRKCH (human) (UniProt P24723)
NEK1 (human) = NEK1 (human) (UniProt Q96PY6)
MAPK9 (human) = MAPK9 (human) (UniProt P45984)
RIPK2 (human) = RIPK2 (human) (UniProt O43353)
MAPKAPK5 (human) = MAPKAPK5 (human) (UniProt Q8IW41)
CAMK4 (human) = CAMK4 (human) (UniProt Q16566)
PRKCA (human) = PRKCA (human) (UniProt P17252)
LYN (human) = LYN (human) (UniProt P07948)
CAMKK1 (human) = CAMKK1 (human) (UniProt Q8N5S9)
STK16 (human) = STK16 (human) (UniProt O75716)
[1] = biological target: TYK2 JH1 catalytic (human) (UniProt P29597)
AURKA (human) = AURKA (human) (UniProt O14965)

MAPK9 (human), sequence (P45984 whole entry, looked up): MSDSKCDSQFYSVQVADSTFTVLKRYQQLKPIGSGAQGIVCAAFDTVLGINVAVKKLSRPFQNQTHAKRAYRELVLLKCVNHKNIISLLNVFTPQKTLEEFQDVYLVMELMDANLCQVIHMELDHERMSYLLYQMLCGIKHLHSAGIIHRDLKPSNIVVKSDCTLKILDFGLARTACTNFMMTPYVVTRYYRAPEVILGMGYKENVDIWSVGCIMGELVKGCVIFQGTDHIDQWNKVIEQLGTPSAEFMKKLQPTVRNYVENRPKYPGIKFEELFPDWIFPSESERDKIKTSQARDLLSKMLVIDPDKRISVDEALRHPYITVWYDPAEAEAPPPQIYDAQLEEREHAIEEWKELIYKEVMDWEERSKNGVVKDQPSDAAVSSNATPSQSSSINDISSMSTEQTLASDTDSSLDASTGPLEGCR
OXSR1 (human), sequence (O95747 whole entry, looked up): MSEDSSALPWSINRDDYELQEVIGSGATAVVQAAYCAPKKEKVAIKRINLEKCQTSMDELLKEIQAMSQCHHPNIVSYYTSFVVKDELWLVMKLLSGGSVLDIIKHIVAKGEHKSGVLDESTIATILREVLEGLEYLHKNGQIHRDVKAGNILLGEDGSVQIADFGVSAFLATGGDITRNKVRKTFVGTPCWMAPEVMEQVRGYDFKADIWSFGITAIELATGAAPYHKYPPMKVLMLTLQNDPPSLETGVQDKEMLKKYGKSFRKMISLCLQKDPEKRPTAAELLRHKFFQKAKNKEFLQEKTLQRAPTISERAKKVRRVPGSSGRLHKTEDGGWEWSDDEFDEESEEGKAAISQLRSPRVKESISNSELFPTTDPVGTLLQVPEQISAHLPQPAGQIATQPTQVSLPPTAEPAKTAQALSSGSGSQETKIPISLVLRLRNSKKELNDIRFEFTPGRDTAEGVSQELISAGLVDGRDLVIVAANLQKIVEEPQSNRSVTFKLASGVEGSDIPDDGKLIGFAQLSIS
MARK1 (human), sequence (Q9P0L2 whole entry, looked up): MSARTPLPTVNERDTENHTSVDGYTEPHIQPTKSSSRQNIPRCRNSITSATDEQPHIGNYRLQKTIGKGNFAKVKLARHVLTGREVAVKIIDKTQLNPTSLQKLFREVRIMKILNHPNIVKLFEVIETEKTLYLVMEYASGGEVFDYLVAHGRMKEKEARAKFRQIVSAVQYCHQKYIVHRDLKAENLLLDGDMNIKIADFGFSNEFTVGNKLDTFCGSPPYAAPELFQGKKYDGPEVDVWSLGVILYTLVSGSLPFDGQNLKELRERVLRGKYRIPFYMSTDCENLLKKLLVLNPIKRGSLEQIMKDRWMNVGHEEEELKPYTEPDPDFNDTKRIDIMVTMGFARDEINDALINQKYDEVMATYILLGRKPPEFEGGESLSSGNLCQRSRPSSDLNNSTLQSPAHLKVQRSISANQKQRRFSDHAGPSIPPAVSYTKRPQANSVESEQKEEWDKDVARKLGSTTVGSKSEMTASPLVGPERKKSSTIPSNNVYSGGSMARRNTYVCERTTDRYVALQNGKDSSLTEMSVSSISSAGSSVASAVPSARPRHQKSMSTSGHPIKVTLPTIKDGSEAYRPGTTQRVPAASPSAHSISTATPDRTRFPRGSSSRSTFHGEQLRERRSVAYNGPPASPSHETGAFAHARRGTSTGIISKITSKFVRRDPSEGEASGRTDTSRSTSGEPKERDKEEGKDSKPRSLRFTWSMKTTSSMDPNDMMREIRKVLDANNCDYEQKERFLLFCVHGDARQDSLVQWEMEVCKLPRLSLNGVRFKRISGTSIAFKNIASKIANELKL
MET (human), sequence (P08581 whole entry, looked up): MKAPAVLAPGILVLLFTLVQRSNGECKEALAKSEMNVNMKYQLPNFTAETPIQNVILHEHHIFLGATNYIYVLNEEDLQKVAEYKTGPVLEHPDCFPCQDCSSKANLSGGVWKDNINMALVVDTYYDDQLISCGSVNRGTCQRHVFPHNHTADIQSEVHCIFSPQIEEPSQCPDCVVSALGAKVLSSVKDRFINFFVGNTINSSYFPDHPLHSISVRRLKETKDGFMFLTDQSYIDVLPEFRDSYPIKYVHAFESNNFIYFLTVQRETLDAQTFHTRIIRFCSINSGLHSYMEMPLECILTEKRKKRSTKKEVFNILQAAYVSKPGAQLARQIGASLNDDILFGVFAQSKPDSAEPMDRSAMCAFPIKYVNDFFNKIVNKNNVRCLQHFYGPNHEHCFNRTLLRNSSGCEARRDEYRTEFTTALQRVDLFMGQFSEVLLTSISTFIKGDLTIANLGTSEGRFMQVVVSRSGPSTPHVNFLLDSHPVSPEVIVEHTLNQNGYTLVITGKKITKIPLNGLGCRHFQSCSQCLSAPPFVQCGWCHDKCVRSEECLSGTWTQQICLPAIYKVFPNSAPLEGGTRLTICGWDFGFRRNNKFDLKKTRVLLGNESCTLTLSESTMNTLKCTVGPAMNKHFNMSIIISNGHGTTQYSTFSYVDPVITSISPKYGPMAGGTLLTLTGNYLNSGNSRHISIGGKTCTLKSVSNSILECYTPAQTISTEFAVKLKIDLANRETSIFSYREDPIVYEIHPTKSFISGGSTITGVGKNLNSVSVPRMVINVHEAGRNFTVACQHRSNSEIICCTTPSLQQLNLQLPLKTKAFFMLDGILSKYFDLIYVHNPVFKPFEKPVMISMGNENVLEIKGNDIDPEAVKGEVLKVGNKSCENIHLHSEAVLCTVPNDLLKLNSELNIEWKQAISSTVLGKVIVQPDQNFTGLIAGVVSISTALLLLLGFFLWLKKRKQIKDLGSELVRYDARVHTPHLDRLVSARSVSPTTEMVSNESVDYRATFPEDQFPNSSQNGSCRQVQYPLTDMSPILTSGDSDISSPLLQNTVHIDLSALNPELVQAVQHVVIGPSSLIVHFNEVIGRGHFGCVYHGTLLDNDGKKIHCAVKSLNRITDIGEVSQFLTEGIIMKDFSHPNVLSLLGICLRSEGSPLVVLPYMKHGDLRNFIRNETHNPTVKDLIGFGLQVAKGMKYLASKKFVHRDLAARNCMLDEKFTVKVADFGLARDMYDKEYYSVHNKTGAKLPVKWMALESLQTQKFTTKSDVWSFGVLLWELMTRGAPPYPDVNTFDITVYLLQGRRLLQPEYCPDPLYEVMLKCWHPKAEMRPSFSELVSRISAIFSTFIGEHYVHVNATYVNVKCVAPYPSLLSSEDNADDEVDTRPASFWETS
ZAP70 (human), sequence (P43403 whole entry, looked up): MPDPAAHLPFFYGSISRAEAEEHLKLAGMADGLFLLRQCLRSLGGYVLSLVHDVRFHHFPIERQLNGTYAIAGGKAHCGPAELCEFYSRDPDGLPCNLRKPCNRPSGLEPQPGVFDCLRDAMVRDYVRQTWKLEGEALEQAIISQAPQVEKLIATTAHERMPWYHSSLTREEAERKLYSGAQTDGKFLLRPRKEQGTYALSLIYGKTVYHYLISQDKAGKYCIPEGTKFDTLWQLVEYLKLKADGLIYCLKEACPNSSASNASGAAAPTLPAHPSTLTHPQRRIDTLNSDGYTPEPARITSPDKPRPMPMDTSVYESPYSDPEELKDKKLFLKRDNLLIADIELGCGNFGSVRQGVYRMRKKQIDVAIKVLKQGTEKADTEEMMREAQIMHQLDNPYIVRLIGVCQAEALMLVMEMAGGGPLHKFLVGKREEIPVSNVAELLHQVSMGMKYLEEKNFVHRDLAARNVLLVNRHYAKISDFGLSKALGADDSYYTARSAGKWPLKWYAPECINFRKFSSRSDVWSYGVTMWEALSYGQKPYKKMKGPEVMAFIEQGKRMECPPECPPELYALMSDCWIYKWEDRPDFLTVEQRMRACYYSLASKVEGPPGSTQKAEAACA
LYN (human), sequence (P07948 whole entry, looked up): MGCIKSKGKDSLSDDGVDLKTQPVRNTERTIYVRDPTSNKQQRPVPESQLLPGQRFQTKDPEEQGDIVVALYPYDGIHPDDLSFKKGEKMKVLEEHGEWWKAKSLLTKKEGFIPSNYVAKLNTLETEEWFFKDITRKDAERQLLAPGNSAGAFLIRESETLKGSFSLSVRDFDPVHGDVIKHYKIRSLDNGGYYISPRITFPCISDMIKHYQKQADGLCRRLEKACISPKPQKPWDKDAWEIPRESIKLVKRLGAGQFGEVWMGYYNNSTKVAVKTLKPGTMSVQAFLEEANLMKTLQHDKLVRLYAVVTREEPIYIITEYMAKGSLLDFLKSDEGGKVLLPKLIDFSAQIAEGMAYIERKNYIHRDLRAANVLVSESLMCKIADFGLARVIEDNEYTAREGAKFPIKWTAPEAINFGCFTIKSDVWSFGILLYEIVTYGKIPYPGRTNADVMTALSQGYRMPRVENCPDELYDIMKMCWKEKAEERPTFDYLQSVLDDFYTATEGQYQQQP
CAMK4 (human), sequence (Q16566 whole entry, looked up): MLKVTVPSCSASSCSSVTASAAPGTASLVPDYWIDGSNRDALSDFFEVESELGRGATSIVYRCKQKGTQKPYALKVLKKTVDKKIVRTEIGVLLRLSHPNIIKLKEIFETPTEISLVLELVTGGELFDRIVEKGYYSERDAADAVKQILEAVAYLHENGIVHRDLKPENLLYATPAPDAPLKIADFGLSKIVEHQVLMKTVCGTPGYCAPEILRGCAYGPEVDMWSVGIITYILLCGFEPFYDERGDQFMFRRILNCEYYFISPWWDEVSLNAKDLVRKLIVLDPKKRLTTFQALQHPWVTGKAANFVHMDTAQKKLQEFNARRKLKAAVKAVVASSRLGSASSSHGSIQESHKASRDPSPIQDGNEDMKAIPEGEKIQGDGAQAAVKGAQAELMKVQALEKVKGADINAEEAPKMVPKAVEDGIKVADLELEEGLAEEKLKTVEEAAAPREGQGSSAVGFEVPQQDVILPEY
STK16 (human), sequence (O75716 whole entry, looked up): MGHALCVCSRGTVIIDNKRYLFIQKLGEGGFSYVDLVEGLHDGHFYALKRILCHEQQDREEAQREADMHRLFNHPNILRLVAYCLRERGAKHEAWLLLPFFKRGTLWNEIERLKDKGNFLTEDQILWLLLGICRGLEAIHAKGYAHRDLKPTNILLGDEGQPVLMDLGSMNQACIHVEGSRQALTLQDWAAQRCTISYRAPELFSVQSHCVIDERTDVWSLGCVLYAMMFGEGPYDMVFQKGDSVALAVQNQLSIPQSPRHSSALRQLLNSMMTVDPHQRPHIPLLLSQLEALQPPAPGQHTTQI

SMILES	residual activity (MARK1 (human))	residual activity (CDK1 CCNA2 (human))	residual activity (IGF1R (human))	residual activity (DCLK2 (human))	residual activity (MAP3K14 (human))	residual activity (JAK3 JH1 JH2 (human))	residual activity (CAMKK2 (human))	residual activity (PAK4 (human))	residual activity (PAK2 (human))	residual activity (RPS6KB1 (human))	residual activity (PAK6 (human))	residual activity (DYRK1B (human))	residual activity (RPS6KA3 KD1 KD2 (human))	residual activity (SRPK3 (human))	residual activity (SYK (human))	residual activity (IKBKB (human))	residual activity (ABL2 (human))	residual activity (NTRK1 (human))	residual activity (OXSR1 (human))	residual activity (BRSK2 (human))	other results
CC#CC(=O)Nc1cc2c(Nc3ccc(F)c(Cl)c3)ncnc2cn1	98.2%	96.5%	100%	102%	80.4%	-0.181%	103%	107%	105%	97.1%	96.9%	103%	97.5%	101%	95.4%	102%	89.4%	98.5%	109%	93.3%	residual activity (PTK6 (human)): 56.8%; residual activity (PDPK1 (human)): 99.6%; residual activity (AKT1 (human)): 98.1%; residual activity (CDK3 CCNE1 (human)): 96.8%; residual activity (PRKCB2 (human)): 99.5%; residual activity (TXK (human)): 1.66%; residual activity (ZAP70 (human)): 90.4%; residual activity (MET (human)): 96.3%; residual activity (PRKCH (human)): 90.4%; residual activity (NEK1 (human)): 105%; residual activity (MAPK9 (human)): 91.8%; residual activity (RIPK2 (human)): 38.7%; residual activity (MAPKAPK5 (human)): 96.3%; residual activity (CAMK4 (human)): 97.4%; residual activity (PRKCA (human)): 101%; residual activity (LYN (human)): 88.3% and 96.1%; residual activity (CAMKK1 (human)): 124%; residual activity (STK16 (human)): 104%; residual activity [1]: 106%; residual activity (AURKA (human)): 96.5%
Nc1cccc(-c2cc3c(Oc4cccc(O)c4)ncnc3[nH]2)c1	83%	99.3%	99.5%	89%	69.6%	123%	95.9%	99.8%	88.9%	95.3%	109%	100%	96.9%	101%	36.1%	90.8%	1.4%	90.5%	119%	86.9%	residual activity (PTK6 (human)): 11.1%; residual activity (PDPK1 (human)): 86.8%; residual activity (AKT1 (human)): 92.5%; residual activity (CDK3 CCNE1 (human)): 82.3%; residual activity (PRKCB2 (human)): 97.5%; residual activity (TXK (human)): 24.5%; residual activity (ZAP70 (human)): 97.5%; residual activity (MET (human)): 110%; residual activity (PRKCH (human)): 90%; residual activity (NEK1 (human)): 92.3%; residual activity (MAPK9 (human)): 111%; residual activity (RIPK2 (human)): 30.5%; residual activity (MAPKAPK5 (human)): 125%; residual activity (CAMK4 (human)): 94.9%; residual activity (PRKCA (human)): 95.6%; residual activity (LYN (human)): 11.1% and 21.4%; residual activity (CAMKK1 (human)): 113%; residual activity (STK16 (human)): 70.4%; residual activity [1]: 36.9%; residual activity (AURKA (human)): 78.2%
O=C(Nc1cccc(Nc2nccc(Nc3cccc(C(F)(F)F)c3)n2)c1)C1CC1	104%	95.9%	95.7%	97.4%	109%	109%	99.5%	87.4%	105%	98%	100%	96.3%	100%	101%	101%	97.9%	83.8%	98.1%	78.9%	89.3%	residual activity (PTK6 (human)): 72.3%; residual activity (PDPK1 (human)): 104%; residual activity (AKT1 (human)): 109%; residual activity (CDK3 CCNE1 (human)): 98.1%; residual activity (PRKCB2 (human)): 98%; residual activity (TXK (human)): 90.2%; residual activity (ZAP70 (human)): 126%; residual activity (MET (human)): 87.7%; residual activity (PRKCH (human)): 98.6%; residual activity (NEK1 (human)): 82.8%; residual activity (MAPK9 (human)): 98.7%; residual activity (RIPK2 (human)): 81.6%; residual activity (MAPKAPK5 (human)): 91.9%; residual activity (CAMK4 (human)): 97.9%; residual activity (PRKCA (human)): 71.9%; residual activity (LYN (human)): 91.9% and 99.9%; residual activity (CAMKK1 (human)): 97.9%; residual activity (STK16 (human)): 87%; residual activity [1]: 42.5%
